In publication PMC9021288 (Nature Communications, 2022):

tested on: TA98, TA100, TA102, TA1535, TA1537; assay: not given; conditions: TA98, -S-9, 5 ug/plate, positive control
Description: Safety studies were performed by commercial services using their standard protocols. […] Genotoxicity was investigated using the Ames test (Bacterial Reverse Mutation Assay) (Covance Laboratories Ltd, North Yorkshire, England). In vitro mammalian cell micronucleus screening assay was studied in human peripheral blood lymphocytes (BioReliance Corporation, Rockville, USA). Cardiotoxicity was determined against the hERG channel in an automated patch clamp assay using the Qpatch or against the hNaV 1.5, hKV 1.5 and hCaV 1.2 using a manual patch-clamp technique (Metrion Biosciences, Cambridge, UK). Cytotoxicity in human and rat primary hepatocytes was assessed using the CellTiter-Blue assay performed by commercial services (KaLy-Cell). The viability of HepG2 cells was monitored through the addition of 1 mM resazurin. Following 6 h incubation, the relative amount of reduced resazurin was detected in a fluorimeter and compared to the assay controls (vehicle: 0.1% DMSO and positive control: 10 µM puromycin).

Row | SMILES | Fold Increase | Mean (Revertant Numbers Per Plate)
1 | O=[N+]([O-])c1ccc2c(c1)Cc1ccccc1-2 [Compound 2NF] | 49.1 | 1375.7

same assay, conditions: TA100, +S-9, 5 ug/plate, positive control

Row | SMILES | Fold Increase | Mean (Revertant Numbers Per Plate)
2 | Nc1ccc2cc3ccccc3cc2c1 [AAN] | 21.6 | 2606

same assay, conditions: TA100, -S-9, 2 ug/plate, positive control

Row | SMILES | Fold Increase | Mean (Revertant Numbers Per Plate)
3 | [N-]=[N+]=[N-].[Na+] [NaN3] | 9.7 | 845

same assay, conditions: TA102, +S-9, 20 ug/plate, positive control

Row | SMILES | Fold Increase | Mean (Revertant Numbers Per Plate)
4 | Nc1ccc2cc3ccccc3cc2c1 [AAN] | 11 | 2462

same assay, conditions: TA102, -S-9, 0.2 ug/plate, positive control

Row | SMILES | Fold Increase
5 | CO[C@@]12[C@H](COC(N)=O)C3=C(C(=O)C(C)=C(N)C3=O)N1C[C@@H]1N[C@@H]12 [MMC] | 3.3

same assay, conditions: TA1535, +S-9, 5 ug/plate, positive control

Row | SMILES | Fold Increase | Mean (Revertant Numbers Per Plate)
6 | Nc1ccc2cc3ccccc3cc2c1 [AAN] | 7.5 | 173.3

same assay, conditions: TA1535, -S-9, 2 ug/plate, positive control

Row | SMILES | Fold Increase | Mean (Revertant Numbers Per Plate)
7 | [N-]=[N+]=[N-].[Na+] [NaN3] | 26.6 | 672.7

same assay, conditions: TA1537, +S-9, 5 ug/plate, positive control

Row | SMILES | Fold Increase | Mean (Revertant Numbers Per Plate)
8 | Nc1ccc2cc3ccccc3cc2c1 [AAN] | 39.7 | 277.7

same assay, conditions: TA1537, -S-9, 50 ug/plate, positive control

Row | SMILES | Fold Increase | Mean (Revertant Numbers Per Plate)
9 | Nc1c2ccccc2nc2ccccc12 [AAC] | 54.9 | 384.3

tested on: P. falciparum NF54 asexual blood-stage parasites; assay: 72-h asexual blood-stage replication assay (SYBR Green); assay type: cell-based, Plasmodium falciparum; conditions: asexual blood stages NF54 parasites; read-out: IC50
Description: Replication assays were performed using a SYBR Green method as described previously. Briefly, asynchronous parasites were diluted to 0.83% parasitemia, 3% hematocrit in 30 µl medium, and added to 30 µl of diluted compounds in medium (0.1% DMSO final concentration) in black 384-wells plates. After a 72-h incubation, 30 µl of SYBR Green diluted in lysis buffer was added according to the manufacturer’s protocol (Life Technologies). Fluorescence intensity was measured on a BioTek Synergy 2 Plate Reader after 1-h incubation and was normalized to a DMSO control (100% growth) and DHA- or epoxomicin-treatment (no growth). […] Parasite survival was assessed by flow cytometry on an Accuri C6 (BD Biosciences) with BD C6 Plus software using SYBR Green and MitoTracker Deep Red FM (Life Technologies) as nuclear stain and vital dye, respectively, and data were analyzed using FlowJo (10.5.0). […] Luminescence was measured after 72 h using the Renilla-Glo(R) Luciferase Assay System (Promega E2750) and the GlomAX® Discover Multimode Microplate Reader (Promega). The luminescence values were normalized to DMSO vehicle (100% growth) and 200 nM chloroquine-treated (no growth) samples as controls.
Dose-response assays were analyzed by a nonlinear regression using a four-parameter model and the least squares method to find the best fit. One-way Analysis of variance (ANOVA) was performed using the Bonferroni’s Multiple Comparison Test. For the majority of experiments, 2-4 biological replicates were performed. Typically, 2 replicates were performed for screening activities, and a minimum of 3 replicates are performed for other experiments unless stated otherwise.

Row | SMILES | IC50 [nM]
10 | C[C@@H](CNC(=O)[C@H](O)C(C)(C)CO)NC(=O)c1ccccc1Cl [MMV892807] | > 10000
11 | C[C@@H](CNC(=O)[C@H](O)C(C)(C)CO)NC(=O)c1ccc(C(F)(F)F)cc1 [MMV892612] | 132
12 | CCC(CC)(CO)[C@@H](O)C(=O)NC[C@H](C)NC(=O)CCc1ccccc1F [MMV884964] | > 1000
13 | C[C@@H](CNC(=O)[C@H](O)C(C)(C)CO)NC(=O)c1c[nH]c2ccccc12 [MMV893375] | 41
14 | C[C@@H](CNC(=O)[C@H](O)C(C)(C)CO)NC(=O)c1cc(F)ccc1F [MMV1576724] | 7
15 | C[C@@H](CNC(=O)[C@H](O)C(C)(C)CO)NC(=O)c1cccc(N(C)C)c1 [MMV884970] | > 10000
16 | C[C@@H](CNC(=O)[C@H](O)C(C)(C)CO)NC(=O)c1csc2ccccc12 [MMV893338] | 195
17 | C[C@@H](CNC(=O)[C@H](O)C(C)(C)CO)NC(=O)c1cccc(C(F)(F)F)c1 [MMV892614] | 143
18 | COc1cccc(C(=O)N[C@@H](C)CNC(=O)[C@H](O)C(C)(C)CO)c1 [MMV892811] | 32
19 | COc1ccccc1C(=O)N[C@@H](C)CNC(=O)[C@H](O)C(C)(C)CO [MMV892812] | > 10000
20 | Cc1cc(C(=O)N[C@@H](C)CNC(=O)[C@H](O)C(C)(C)CO)c(F)cc1F [MMV893115] | 66
21 | C[C@@H](CNC(=O)[C@H](O)C(C)(C)CO)NC(=O)c1cc[nH]c1 [MMV893376] | 1800
22 | C[C@@H](CNC(=O)[C@H](O)C(C)(C)CO)NC(=O)c1ccc(F)c(Cl)c1 [MMV977407] | 3.4
23 | COc1ccc(C(=O)N[C@@H](C)CNC(=O)[C@H](O)C(C)(C)CO)cc1 [MMV892810] | 344
24 | C[C@H](CNC(=O)[C@H](O)C(C)(C)CO)NC(=O)CCc1ccccc1F [MMV689260] | 210
25 | C[C@@H](CNC(=O)[C@H](O)C(C)(C)CO)NC(=O)c1ccccc1F [MMV154200] | 41
26 | C[C@@H](CNC(=O)[C@H](O)C(C)(C)CO)NC(=O)c1cc(Cl)ccc1F [MMV1576728] | 2.6
27 | C[C@@H](CNC(=O)[C@H](O)C(C)(C)CO)NC(=O)c1ccc(Cl)cc1 [MMV892809] | 103
28 | C[C@@H](CNC(=O)[C@H](O)C(C)(C)CO)NC(=O)c1cccc(Cl)c1 [MMV892808] | 2.3
29 | C[C@@H](CNC(=O)[C@H](O)C(C)(C)CO)NC(=O)c1ccc(C#N)cc1 [MMV884961] | 535
30 | C[C@@H](CNC(=O)[C@H](O)C(C)(C)CO)NC(=O)c1ccc(F)cc1 [MMV1542002] | 82
31 | C[C@@H](CNC(=O)[C@H](O)C(C)(C)CNS(C)(=O)=O)NC(=O)CCc1ccccc1F [MMV1545779] | > 1000
32 | C[C@@H](CNC(=O)[C@H](O)C(C)(C)CO)NC(=O)c1ccoc1 [MMV893339] | 42
33 | C[C@@H](CNC(=O)[C@H](O)C(C)(C)CO)NC(=O)c1cc(Cl)c(Cl)cc1F [MMV893655] | 19.7
34 | C[C@@H](CNC(=O)[C@H](O)C(C)(C)CO)NC(=O)c1cccs1 [MMV893344] | 18.2
35 | C[C@@H](CNC(=O)[C@H](O)C(C)(C)CO)NC(=O)c1cc2ccccc2o1 [MMV893335] | 12.5
36 | C[C@@H](CNC(=O)[C@H](O)C(C)(C)CO)NC(=O)c1ccc(Cl)c(F)c1 [MMV1576725] | 56

Row | SMILES | IC50 [nM]
37 | C[C@@H](CNC(=O)[C@H](O)C(C)(C)CO)NC(=O)c1ccccc1C(F)(F)F [MMV892613] | > 10000
38 | CC(CNC(=O)C(C)(O)C(C)(C)CO)NC(=O)CCc1ccccc1F (mixture of isomers) [MMV1545785] | 1000
39 | C[C@@H](CNC(=O)[C@H](O)C(C)(C)CO)NC(=O)c1ccsc1 [MMV893340] | 14.6
40 | C[C@@H](CNC(=O)[C@H](O)C(C)(C)CO)NC(=O)c1coc2ccccc12 [MMV893337] | 3.9
41 | Cc1ccc(C(=O)N[C@@H](C)CNC(=O)[C@H](O)C(C)(C)CO)cc1 [MMV1542100] | 85
42 | C[C@@H](CNC(=O)[C@H](O)C(C)(C)CO)NC(=O)c1cc2ccccc2[nH]1 [MMV893121] | 53
43 | C[C@@H](CNC(=O)[C@H](O)C(C)(C)CO)NC(=O)c1ccc[nH]1 [MMV893345] | > 10000
44 | Cc1ccccc1C(=O)N[C@@H](C)CNC(=O)[C@H](O)C(C)(C)CO [MMV1542005] | > 10000
45 | C[C@@H](CNC(=O)[C@H](O)C(C)(C)CO)NC(=O)c1cc(Cl)c(F)cc1F [MMV692009] | 2.3
46 | C[C@@H](CNC(=O)[C@H](O)C(C)(C)CO)NC(=O)c1cccc(C#N)c1F [MMV977410] | 19
47 | C[C@@H](CNC(=O)[C@H](O)C(C)(C)CO)NC(=O)c1ccc(F)c(C#N)c1 [MMV977409] | 84
48 | CC(C)(CNC(=O)[C@H](O)C(C)(C)CO)NC(=O)CCc1ccccc1F [MMV689455] | 1190
49 | C[C@@H](CNC(=O)[C@H](O)C(C)(C)CO)NC(=O)c1cccc(S(C)(=O)=O)c1 [MMV884969] | > 10000
50 | C[C@@H](CNC(=O)[C@H](O)C(C)(C)CO)NC(=O)c1ccc(F)c(F)c1 [MMV1576731] | 4.6
51 | C[C@@H](CNC(=O)[C@H](O)C(C)(C)CO)NS(=O)(=O)CCc1ccccc1 [MMV692748] | > 10000
52 | CC(C)(CNC(=O)CCc1ccccc1F)NC(=O)[C@H](O)C(C)(C)CO [MMV689261] | > 10000
53 | C[C@@H](CNC(=O)C(=O)C(C)(C)CO)NC(=O)CCc1ccccc1F [MMV1545786] | 1000
54 | Cc1cccc(C(=O)N[C@@H](C)CNC(=O)[C@H](O)C(C)(C)CO)c1 [MMV1542099] | 22
55 | C[C@@H](CNC(=O)[C@H](O)C(C)(C)CO)NC(=O)c1c(F)cccc1F [MMV693185] | 478
56 | C[C@@H](CNC(=O)[C@H](O)C(C)(C)CO)c1nnc(CCc2ccccc2F)[nH]1 [MMV884788] | 554
57 | C[C@@H](CNC(=O)[C@H](O)C(C)(C)CO)NC(=O)c1cccc(Cl)c1F [MMV977411] | 12
58 | C[C@@H](CNC(=O)[C@@H](O)C(C)(C)CO)NC(=O)CCc1ccccc1F [MMV884787] | 235
59 | C[C@@H](CNC(=O)[C@H](O)C(C)(C)CO)NC(=O)c1cccc(F)n1 [MMV892814] | > 10000
60 | C[C@@H](CNC(=O)[C@H](O)C(C)(C)CO)NC(=O)c1cccc(F)c1F [MMV1576723] | 32.7
61 | CC[C@@H](CNC(=O)[C@H](O)C(C)(C)CO)NC(=O)CCc1ccccc1F [MMV692676] | 122
62 | C[C@@H](CNC(=O)[C@H](O)C(C)(C)CO)NC(=O)c1cc2ccccc2s1 [MMV893336] | 19.9
63 | C[C@H](CNC(=O)[C@@H](O)C(C)(C)CO)NC(=O)CCc1ccccc1F [MMV884968] | > 1000
